Experimental data: publication PMC9965906, “Discovery and Development Strategies for SARS-CoV-2 NSP3 Macrodomain Inhibitors” (Pathogens, 2023)
pIC50: −log10 of the molar value. “And” between values parts separate entries of the source, which are not always exact repeats. Identical values can stand only once. Counter-ions that a name gives are not always drawn. Like-named read-outs stand apart in the source and are kept apart here.

Biological target: SARS-CoV-2 NSP3 Mac1 (Severe acute respiratory syndrome coronavirus 2, UniProt P0DTD1)
Experiment: biochemical
Assay type: binding
Settings: for inhibition at 125 µM: read-out: Inhibition at top concentration of 125 µM (%); for inhibitory activity in FDA-approved library screen: primary screen at the set screening concentration
[1] = MIDAS hit compounds and analogues
[2] = MIDAS hit compounds and analogues, top concentration 125 µM, 8-point 1:1 dilution, duplicate, read-out: IC50
[3] = MIDAS hit compounds and analogues, top concentration 125 µM, 8-point 1:1 dilution, duplicate
[4] = MIDAS compound library primary screen, 25 µM
[5] = BioAscent virtual screening hit compounds, 25 µM, duplicate
[6] = FDA-approved compound library primary screen, 50 µM, single shot
[7] = FDA-approved hit compounds, confirmatory HTRF assays

Compound	inhibition at 125 µM [1] [%]	IC50 in µM [3]	also measured
Cn1ccc2c(-c3ccc(C(=O)NC4CC4)o3)ccnc21 [IAL-MD0132, O=C(NC1CC1)C2=CC=C(C3=C4C(N(C)C=C4)=NC=C3)O2]			Inhibition at top concentration of 125 µM (%) [1]: Not measurable due to compound precipitation; pIC50 [2]: 5.14
CC(C)n1ncc2c(C(=O)Nc3ccn(C)n3)cc(-c3cccs3)nc21 [IAL-MD0090, CC(C)N1N=CC=2C(=CC(=NC12)C3=CC=CS3)C(=O)NC=4C=CN(C)N4]	11	Not measurable	
COCCNC(=O)c1ccc(-c2ccnc3c2ccn3C)o1 [Compound 1, COCCNC(=O)c1ccc(o1)-c1ccnc2n(ccc12)C]			inhibition at 25 µM [4]: 73%; NSP3 Mac1 inhibition at 25 µM (%) (MIDAS compound library primary screen, 25 µM, listed as ARUK4007189-001-001, 25 µM): 73.1%
COCCCOc1ccnc(C[S+]([O-])c2nc3ccccc3[nH]2)c1C (centres unmarked) [rabeprazole, reference compound]			inhibitory activity in FDA-approved library screen: could yet not measure any inhibitory activity
CC(=O)Nc1cccc(NC(=O)c2cc(-c3cccs3)nc3c2cnn3C(C)C)c1 [IAL-MD0032, CC(C)N1N=CC=2C(=CC(=NC12)C3=CC=CS3)C(=O)NC=4C=CC=C(NC(=O)C)C4]	20.3	Not measurable	
COc1ncccc1C(=O)N1CCC(c2c[nH]c3ncccc23)CC1 [IAL-MD0084, COC=1N=CC=CC1C(=O)N2CCC(CC2)C3=CNC=4N=CC=CC34]	13.2	Not measurable	
O=c1c(O)c(-c2cccs2)oc2ccccc12 [BCC0111915, O=c1c(O)c(-c2cccs2)oc2ccccc12]			inhibition at 25 µM [5]: 62.9%
CNC(=O)CN(C)C(=O)c1cc(-c2cccs2)nc2c1c(C)nn2C [IAL-MD0081, CNC(=O)CN(C)C(=O)C=1C=C(N=C2N(C)N=C(C)C12)C3=CC=CS3]	53	Not measurable	
CC(=O)N1CCN(C(=O)c2ccc(-c3ncnc4[nH]ccc34)cc2)CC1 [IAL-MD0143, O=C(C1=CC=C(C2=C3C(NC=C3)=NC=N2)C=C1)N4CCN(C(C)=O)CC4]	71.9		pIC50 [2]: 4.35
NNc1nncc2ccccc12 [hydralazine, reference compound]			inhibitory activity in FDA-approved library screen: no NSP3 Mac1 inhibition
CN(C)C1CCN(C(=O)c2ccc(-c3ncnc4[nH]ccc34)cc2)C1 (centres unmarked) [IAL-MD0141, O=C(N1CC(N(C)C)CC1)C2=CC=C(C3=C4C(NC=C4)=NC=N3)C=C2.O=CO]	81.3		pIC50 [2]: 4.60
CC(C)n1ncc2c(C(=O)Nc3ccncc3)cc(-c3cccs3)nc21 [IAL-MD0055, CC(C)N1N=CC=2C(=CC(=NC12)C3=CC=CS3)C(=O)NC=4C=CN=CC4]	19.4	Not measurable	
CC(=O)N1CCN(C(=O)c2cc(-c3ccccc3)nc3c2cnn3C(C)C)CC1 [IAL-MD0082, CC(C)N1N=CC=2C(=CC(=NC12)C=3C=CC=CC3)C(=O)N4CCN(CC4)C(=O)C]		Not measurable	Inhibition at top concentration of 125 µM (%) [1]: Not measurable
CCn1ncc2c(C(=O)NC(C)c3ccncc3)cc(-c3cccs3)nc21 (centres unmarked) [IAL-MD0120, CCN1N=CC=2C(=CC(=NC12)C3=CC=CS3)C(=O)NC(C)C=4C=CN=CC4]	8.9	Not measurable	
CCn1ncc2c(C(=O)N(Cc3ccccn3)C(C)C)cc(-c3cccs3)nc21 [IAL-MD0071, CCN1N=CC=2C(=CC(=NC12)C3=CC=CS3)C(=O)N(CC=4C=CC=CN4)C(C)C]	36.8	Not measurable	
Oc1cc2ccccc2nc1-c1ccccc1 [BCC0093974, Oc1cc2ccccc2nc1-c1ccccc1]			inhibition at 25 µM [5]: 38.6%
COc1ccc(-c2cc(C(=O)Nc3cccc(OCC(N)=O)c3)c3ccccc3n2)cc1 [IAL-MD0034, COC=1C=CC(=CC1)C=2C=C(C(=O)NC=3C=CC=C(OCC(=O)N)C3)C=4C=CC=CC4N2]	8.9	Not measurable	
CCn1ncc2c(C(=O)N3CCCC3c3ccc(OC)cc3)cc(-c3cccs3)nc21 (centres unmarked) [IAL-MD0066, CCN1N=CC=2C(=CC(=NC12)C3=CC=CS3)C(=O)N4CCCC4C=5C=CC(OC)=CC5]	13.5	Not measurable	
CCn1ncc2c(C(=O)N3CCCC(C)C3)cc(-c3ccccc3)nc21 (centres unmarked) [IAL-MD0096, CCN1N=CC=2C(=CC(=NC12)C=3C=CC=CC3)C(=O)N4CCCC(C)C4]	3.9	Not measurable	
CN1CCN(C(=O)c2cncc(-c3ccnc4c3ccn4C)n2)CC1 [IAL-MD0146, O=C(C1=CN=CC(C2=C3C(N(C)C=C3)=NC=C2)=N1)N4CCN(C)CC4]	3.7	Not measurable	
Cc1nn(C)c2nc(-c3cccs3)cc(C(=O)NCc3ccccn3)c12 [IAL-MD0048, CC1=NN(C)C=2N=C(C=C(C(=O)NCC=3C=CC=CN3)C12)C4=CC=CS4]	15.8	Not measurable	

Compound	inhibition at 125 µM [1] [%]	IC50 in µM [3]	also measured
COc1ccc(-c2cc(C(=O)NCC(F)(F)F)c3ccccc3n2)cc1 [IAL-MD0099, COC=1C=CC(=CC1)C=2C=C(C(=O)NCC(F)(F)F)C=3C=CC=CC3N2]	22.2	Not measurable	
COc1ccc(-c2cc(C(=O)Nc3cccnc3)c3ccccc3n2)cc1 [IAL-MD0100, COC=1C=CC(=CC1)C=2C=C(C(=O)NC=3C=CC=NC3)C=4C=CC=CC4N2]	15.9	Not measurable	
COc1cc(/C=C2\Oc3cc(O)ccc3C2=O)ccc1O [BCC0002149, COc1cc(/C=C2\Oc3cc(O)ccc3C2=O)ccc1O]			inhibition at 25 µM [5]: 47.2%
CC(C)n1ncc2c(C(=O)N(C)Cc3cccc(O)c3)cc(-c3cccs3)nc21 [IAL-MD0104, CC(C)N1N=CC=2C(=CC(=NC12)C3=CC=CS3)C(=O)N(C)CC=4C=CC=C(O)C4]	18.4	Not measurable	
CC(=O)[O][Hg][c]1ccccc1 [Phenylmercuric acetate, reference compound]			NSP3 Mac1 inhibition at 50 µM (%): 58.1%
COc1cc2c(cc1/C=C/C(=O)O)OC(C)C2 (centres unmarked) [IAL-MD0306, COc1cc2c(cc1/C=C/C(=O)O)OC(C)C2]			inhibition at 187 µM (BioAscent hit compounds, 187 µM, read-out: Inhibition at top screening concentration of 187 µM): 81.3%; Hill slope (BioAscent hit compounds, confirmatory IC50 curves): 0.8; pIC50 (BioAscent hit compounds, top concentration 187 µM, 8-point 1:1 dilution, duplicate, read-out: IC50): 4.74; inhibition at 25 µM [5]: 63.7%
Cc1nn(C)c2nc(-c3ccccc3)cc(C(=O)N3CCN(C(=O)C4CC4)CC3)c12 [IAL-MD0045, CC1=NN(C)C=2N=C(C=C(C(=O)N3CCN(CC3)C(=O)C4CC4)C12)C=5C=CC=CC5]	47.5	Not measurable	
Oc1c(Cl)cc(Cl)c(Cl)c1Cc1c(O)c(Cl)cc(Cl)c1Cl [Hexachlorophene, reference compound]			inhibition at 50 µM [6]: 85.5%
O=c1c2ccccc2[se]n1-c1ccccc1 [Ebselen, reference compound]			NSP3 Mac1 inhibition at 50 µM (%) [6]: 107%; inhibition at 50 µM [6]: 108%; Hill slope [7]: 4.94
C=C1c2cccc(O)c2C(=O)C2=C(O)[C@]3(O)C(=O)C(C(N)=O)=C(O)[C@@H](N(C)C)[C@@H]3[C@@H](O)[C@H]12 [Methacycline hydrochloride, reference compound]			NSP3 Mac1 inhibition at 50 µM (%) [6]: 87%; inhibition at 50 µM [6]: 86.8%; outcome of dose-response titration (FDA-approved hit compounds, top concentration 125 µM): strong assay interference
CC(=O)OCC1=C(C(=O)O)N2C(=O)[C@@H](NC(=O)CCC[C@@H](N)C(=O)O)[C@H]2SC1 [Cephalosporin C sodium, reference compound]			inhibition at 50 µM [6]: 89.8%
COc1cc(/C=C/C(=O)c2cc3ccccc3o2)cc(Br)c1O [BCC0117785, COc1cc(/C=C/C(=O)c2cc3ccccc3o2)cc(Br)c1O]			inhibition at 25 µM [5]: 39.3%
CC(C)NC(=O)c1ccc(-c2ccnc3c2ccn3C)o1 [IAL-MD0130, O=C(NC(C)C)C1=CC=C(C2=C3C(N(C)C=C3)=NC=C2)O1]			Inhibition at top concentration of 125 µM (%) [1]: Not measurable due to compound precipitation; pIC50 [2]: 5.12
O=c1ccsn1-c1ccc(F)c(Cl)c1 [BCC0125028, O=c1ccsn1-c1ccc(F)c(Cl)c1]			inhibition at 25 µM [5]: 57.5%
Cn1ccc2c(-c3ccc(C(=O)N4CCCCC4)cn3)ccnc21 [IAL-MD0128, O=C(C1=CN=C(C2=C3C(N(C)C=C3)=NC=C2)C=C1)N4CCCCC4]			inhibition at 25 µM [4]: 58%; Inhibition at top concentration of 125 µM (%) [1]: Not measurable due to compound precipitation; pIC50 [2]: ~5.51 and 5.51; assay effects in dose-response titration (MIDAS hits and analogues, higher compound concentrations): assay interference effects at higher compound concentrations
CC(C)n1ncc2c(C(=O)N3CCNC(=O)C3)cc(-c3ccccc3)nc21 [IAL-MD0123, CC(C)N1N=CC=2C(=CC(=NC12)C=3C=CC=CC3)C(=O)N4CCNC(=O)C4]	1.8	Not measurable	
COCCN(CC(N)=O)C(=O)c1cc(-c2cccs2)nc2c1c(C)nn2C [IAL-MD0116, COCCN(CC(=O)N)C(=O)C=1C=C(N=C2N(C)N=C(C)C12)C3=CC=CS3]	55.8	Not measurable	
CCn1ncc2c(C(=O)N3CCNC(=O)C3)cc(-c3cccs3)nc21 [IAL-MD0040, CCN1N=CC=2C(=CC(=NC12)C3=CC=CS3)C(=O)N4CCNC(=O)C4]	81		inhibition at 25 µM [4]: 51%; pIC50 [2]: 4.68 and 4.69
C[C@H]1[C@H](NC(=O)/C(=N\OC(C)(C)C(=O)O)c2csc(N)n2)C(=O)N1S(=O)(=O)O [Aztreonam, reference compound]			NSP3 Mac1 inhibition at 50 µM (%) [6]: 43%; inhibition at 50 µM [6]: 42.8%; Hill slope [7]: 1.05; pIC50 (IC50): 4.53 and 4.54
CCn1ncc2c(C(=O)Nc3cccc(-c4nnco4)c3)cc(-c3cccs3)nc21 [IAL-MD0061, CCN1N=CC=2C(=CC(=NC12)C3=CC=CS3)C(=O)NC=4C=CC=C(C4)C5=NN=CO5]	7	Not measurable	
Candicidin [reference compound]			NSP3 Mac1 inhibition at 50 µM (%) [6]: 50.1%; NSP3 Mac1 inhibition at 50 µM (%) (FDA-approved compound library primary screen, 50 µM, single shot, listed as candicidin): 50%
